Data taken from patent US20260364215A1, “Radiopharmaceutical Compositions Targeting Ephrin Type-A Receptor 2 and Uses Thereof” (PeptiDream Inc., priority 2022, published 2026).
Numbered stars: 1 amine (or outer) side, 2 acyl side, 3 side chain; on linkers, the order of the positions; unused ones are H or OH. Bridge positions count the residues as written; N and C are the ends. Square brackets hold non-standard residues; d marks the D form. Side chains are listed from the residue outwards. Peptide text beside a SMILES is read from it. * marks the point of attachment. DOTA(Lu) = O=C1CN2CCN3CCN(CC(=O)*)CCN(CC2)CC(=O)[O][Lu]([O]1)[O]C(=O)C3; NH(1-deoxy-D-glucityl) = OC[C@@H](O)[C@@H](O)[C@H](O)[C@@H](O)CN*; DOTA = O=C(O)CN1CCN(CC(=O)O)CCN(CC(=O)*)CCN(CC(=O)O)CC1; Trp(1-Me,7-Cl) = Cn1cc(C[C@H](N)C(=O)O)c2cccc(Cl)c21; dPhe(3-CONH2) = NC(=O)c1cccc(C[C@@H](N)C(=O)O)c1; Piperazinyl(4-CH2COOH) = O=C(O)CN1CCN(*)CC1; Trp(1-Me) = Cn1cc(C[C@H](N)C(=O)O)c2ccccc21; NMemTyr = CN[C@@H](Cc1cccc(O)c1)C(=O)O; d(tBuAla) = CC(C)(C)C[C@@H](N)C(=O)O; NMe3Pal = CN[C@@H](Cc1cccnc1)C(=O)O; Gly(cBu) = N[C@H](C(=O)O)C1CCC1; NMeE = CN[C@@H](CCC(=O)O)C(=O)O; Aad = N[C@@H](CCCC(=O)O)C(=O)O; CO = O=C([*:1])[*:2]

Target: T1, Recombinant Human EphA2 Fc Protein (Homo sapiens, UniProt P29317)
T1 construct: purchased Elabscience
Assay: Interaction analysis (kinetics, KD) of peptides and conjugates against EphA2 by SPR, Biacore T200, single-cycle kinetics (Examples B15 and B22)
Type: binding
Conditions: not given
In short: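 Biacore T200 SPR with Fc-tagged human EphA2 captured via anti-human antibody; running buffer HBS-P+ pH 7.4 with 1% DMSO, 25 °C. Five serial dilutions of peptide or conjugate run by single-cycle kinetics; KD from ka and kd after baseline subtraction.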

T1 sequence (P29317 24-534 limits assumed): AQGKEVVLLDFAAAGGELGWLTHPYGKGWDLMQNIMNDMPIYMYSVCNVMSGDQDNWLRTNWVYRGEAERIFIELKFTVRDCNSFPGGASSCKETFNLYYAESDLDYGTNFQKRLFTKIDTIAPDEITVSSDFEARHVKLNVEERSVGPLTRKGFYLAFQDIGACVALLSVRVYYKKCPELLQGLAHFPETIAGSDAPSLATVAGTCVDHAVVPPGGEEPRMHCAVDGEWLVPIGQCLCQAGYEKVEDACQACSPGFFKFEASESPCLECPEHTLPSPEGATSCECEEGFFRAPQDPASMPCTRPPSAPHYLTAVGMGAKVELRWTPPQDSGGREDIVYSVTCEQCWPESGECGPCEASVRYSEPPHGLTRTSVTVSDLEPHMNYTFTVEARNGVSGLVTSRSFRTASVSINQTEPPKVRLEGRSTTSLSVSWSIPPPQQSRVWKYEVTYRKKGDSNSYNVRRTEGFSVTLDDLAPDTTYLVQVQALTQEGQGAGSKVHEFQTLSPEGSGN

Compound	Kd [nM]
C[C@@H](O)[C@@H]1NC(=O)[C@H](Cc2cn(C)c3ccccc23)NC(=O)[C@H](CCCCNC(=O)N2CCN(CC(=O)O)CC2)NC(=O)[C@H](Cc2cn(C)c3c(Cl)cccc23)NC(=O)[C@H](CCC(=O)O)N(C)C(=O)[C@H](CCCC(N)=O)NC(=O)[C@H](C2CCC2)NC(=O)[C@H](CC(N)=O)NC(=O)[C@H](Cc2cccc(O)c2)N(C)C(=O)[C@@H](Cc2cccc(C(N)=O)c2)NC(=O)CSC[C@@H](C(=O)N[C@H](CCCCNC(=O)CN2CCN3CCN4CCN(CC2)CC(=O)[O][Lu]([O]C(=O)C3)[O]C(=O)C4)C(=O)O)NC(=O)[C@H](CCCC(N)=O)NC1=O [PDC_EphA2-00026775] ({CH2CO}-[dPhe(3-CONH2)][NMemTyr]N[Gly(cBu)][Aad](NH2)[NMeE][Trp(1-Me,7-Cl)]K([CO-Piperazinyl(4-CH2COOH)])[Trp(1-Me)]T[Aad](NH2)C[dK](DOTA(Lu))-OH; thioether N-12)	< 1
C[C@H]1NC(=O)CSC[C@@H](C(=O)N[C@H](CCC(=O)O)C(N)=O)NC(=O)[C@H](CCCC(N)=O)NC(=O)[C@H]([C@@H](C)O)NC(=O)[C@H](Cc2cn(C)c3ccccc23)NC(=O)[C@H](CCCCNC(=O)N2CCN(CC(=O)O)CC2)NC(=O)[C@H](Cc2cn(C)c3c(Cl)cccc23)NC(=O)[C@H](CCC(=O)O)N(C)C(=O)[C@H](CCCCNC(=O)[C@@H](Cc2ccccc2)NC(=O)CN2CCN3CCN4CCN(CC2)CC(=O)[O][Lu]([O]C(=O)C3)[O]C(=O)C4)NC(=O)[C@H](C2CCC2)NC(=O)[C@H](CC(N)=O)NC(=O)[C@H](Cc2cccnc2)N(C)C1=O [PDC_EphA2-00027127] ({CH2CO}-[dA][NMe3Pal]N[Gly(cBu)]K([dF-DOTA(Lu)])[NMeE][Trp(1-Me,7-Cl)]K([CO-Piperazinyl(4-CH2COOH)])[Trp(1-Me)]T[Aad](NH2)C[dE]-NH2; thioether N-12)	< 1
C[C@H]1NC(=O)CSC[C@@H](C(N)=O)NC(=O)[C@H](CCCCNC(=O)[C@@H](CCC(=O)O)NC(=O)CN2CCN3CCN4CCN(CC2)CC(=O)[O][Lu]([O]C(=O)C3)[O]C(=O)C4)NC(=O)[C@H]([C@@H](C)O)NC(=O)[C@H](Cc2cn(C)c3ccccc23)NC(=O)[C@H](CCCCNC(=O)N2CCN(CC(=O)O)CC2)NC(=O)[C@H](Cc2cn(C)c3c(Cl)cccc23)NC(=O)[C@H](CCC(=O)O)N(C)C(=O)[C@H](CCCC(N)=O)NC(=O)[C@H](C2CCC2)NC(=O)[C@H](CC(N)=O)NC(=O)[C@H](Cc2cccnc2)N(C)C1=O [PDC_EphA2-00027128] ({CH2CO}-[dA][NMe3Pal]N[Gly(cBu)][Aad](NH2)[NMeE][Trp(1-Me,7-Cl)]K([CO-Piperazinyl(4-CH2COOH)])[Trp(1-Me)]TK([dE-DOTA(Lu)])C-NH2; thioether N-12)	< 1
C[C@H]1NC(=O)CSC[C@@H](C(=O)N[C@H](CCC(=O)O)C(N)=O)NC(=O)[C@H](CCCC(N)=O)NC(=O)[C@H]([C@@H](C)O)NC(=O)[C@H](Cc2cn(C)c3ccccc23)NC(=O)[C@H](CCCCNC(=O)N2CCN(CC(=O)O)CC2)NC(=O)[C@H](Cc2cn(C)c3c(Cl)cccc23)NC(=O)[C@H](CCC(=O)O)N(C)C(=O)[C@H](CCCCNC(=O)[C@@H](CC(C)(C)C)NC(=O)CN2CCN3CCN4CCN(CC2)CC(=O)[O][Lu]([O]C(=O)C3)[O]C(=O)C4)NC(=O)[C@H](C2CCC2)NC(=O)[C@H](CC(N)=O)NC(=O)[C@H](Cc2cccnc2)N(C)C1=O [PDC_EphA2-00027130] ({CH2CO}-[dA][NMe3Pal]N[Gly(cBu)]K([d(tBuAla)-DOTA(Lu)])[NMeE][Trp(1-Me,7-Cl)]K([CO-Piperazinyl(4-CH2COOH)])[Trp(1-Me)]T[Aad](NH2)C[dE]-NH2; thioether N-12)	< 1

Same assay, conditions: conjugates, Biacore T200 according to Example B15, Table B16; read-out: SPR Kd

Compound	Kd [nM]
C[C@@H](O)[C@@H]1NC(=O)[C@H](Cc2cn(C)c3ccccc23)NC(=O)[C@H](CCC(=O)NC[C@H](O)[C@@H](O)[C@H](O)[C@H](O)CO)NC(=O)[C@H](Cc2cn(C)c3c(Cl)cccc23)NC(=O)[C@H](Cc2cccnc2)N(C)C(=O)[C@H](CCCC(N)=O)NC(=O)[C@H](C2CCC2)NC(=O)[C@H](CC(N)=O)NC(=O)[C@H](Cc2cccnc2)N(C)C(=O)[C@@H](Cc2cccc(C(N)=O)c2)NC(=O)CSC[C@@H](C(=O)N[C@H](CCCCNC(=O)CN2CCN(CC(=O)O)CCN(CC(=O)O)CCN(CC(=O)O)CC2)C(=O)O)NC(=O)[C@H](CCCC(N)=O)NC1=O.[Lu+3] [PDC_EphA2-00026774] ({CH2CO}-[dPhe(3-CONH2)][NMe3Pal]N[Gly(cBu)][Aad](NH2)[NMe3Pal][Trp(1-Me,7-Cl)]E(NH(1-deoxy-D-glucityl))[Trp(1-Me)]T[Aad](NH2)C[dK](DOTA)-OH; thioether N-12)	< 1
C[C@H]1NC(=O)CSC[C@@H](C(=O)N[C@H](CCC(=O)O)C(=O)O)NC(=O)[C@H](CCCC(N)=O)NC(=O)[C@H]([C@@H](C)O)NC(=O)[C@H](Cc2cn(C)c3ccccc23)NC(=O)[C@H](CCCCNC(=O)N2CCN(CC(=O)O)CC2)NC(=O)[C@H](Cc2cn(C)c3c(Cl)cccc23)NC(=O)[C@H](CCC(=O)O)N(C)C(=O)[C@H](CCCCNC(=O)CN2CCN(CC(=O)O)CCN(CC(=O)O)CCN(CC(=O)O)CC2)NC(=O)[C@H](C2CCC2)NC(=O)[C@H](CC(N)=O)NC(=O)[C@H](Cc2cccnc2)N(C)C1=O.[Lu+3] [PDC_EphA2-00027103] ({CH2CO}-[dA][NMe3Pal]N[Gly(cBu)]K(DOTA)[NMeE][Trp(1-Me,7-Cl)]K([CO-Piperazinyl(4-CH2COOH)])[Trp(1-Me)]T[Aad](NH2)C[dE]-OH; thioether N-12)	< 1
C[C@@H](O)[C@@H]1NC(=O)[C@H](Cc2cn(C)c3ccccc23)NC(=O)[C@H](CCCCNC(=O)N2CCN(CC(=O)O)CC2)NC(=O)[C@H](Cc2cn(C)c3c(Cl)cccc23)NC(=O)[C@H](CCC(=O)O)N(C)C(=O)[C@H](CCCCNC(=O)CN2CCN(CC(=O)O)CCN(CC(=O)O)CCN(CC(=O)O)CC2)NC(=O)[C@H](C2CCC2)NC(=O)[C@H](CC(N)=O)NC(=O)[C@H](Cc2cccnc2)N(C)C(=O)[C@@H](Cc2cccc(C(N)=O)c2)NC(=O)CSC[C@@H](C(=O)N[C@H](CCC(=O)O)C(=O)O)NC(=O)[C@H](CCCC(N)=O)NC1=O.[Lu+3] [PDC_EphA2-00027104] ({CH2CO}-[dPhe(3-CONH2)][NMe3Pal]N[Gly(cBu)]K(DOTA)[NMeE][Trp(1-Me,7-Cl)]K([CO-Piperazinyl(4-CH2COOH)])[Trp(1-Me)]T[Aad](NH2)C[dE]-OH; thioether N-12)	< 1
C[C@H]1NC(=O)CSC[C@@H](C(=O)N[C@H](CCC(=O)O)C(N)=O)NC(=O)[C@H](CCCC(N)=O)NC(=O)[C@H]([C@@H](C)O)NC(=O)[C@H](Cc2cn(C)c3ccccc23)NC(=O)[C@H](CCCCNC(=O)N2CCN(CC(=O)O)CC2)NC(=O)[C@H](Cc2cn(C)c3c(Cl)cccc23)NC(=O)[C@H](CCC(=O)O)N(C)C(=O)[C@H](CCCCNC(=O)CN2CCN(CC(=O)O)CCN(CC(=O)O)CCN(CC(=O)O)CC2)NC(=O)[C@H](C2CCC2)NC(=O)[C@H](CC(N)=O)NC(=O)[C@H](Cc2cccnc2)N(C)C1=O.[Lu+3] [PDC_EphA2-00027105] ({CH2CO}-[dA][NMe3Pal]N[Gly(cBu)]K(DOTA)[NMeE][Trp(1-Me,7-Cl)]K([CO-Piperazinyl(4-CH2COOH)])[Trp(1-Me)]T[Aad](NH2)C[dE]-NH2; thioether N-12)	< 1
C[C@@H](O)[C@@H]1NC(=O)[C@H](Cc2cn(C)c3ccccc23)NC(=O)[C@H](CCCCNC(=O)N2CCN(CC(=O)O)CC2)NC(=O)[C@H](Cc2cn(C)c3c(Cl)cccc23)NC(=O)[C@H](CCC(=O)O)N(C)C(=O)[C@H](CCCCNC(=O)CN2CCN(CC(=O)O)CCN(CC(=O)O)CCN(CC(=O)O)CC2)NC(=O)[C@H](C2CCC2)NC(=O)[C@H](CC(N)=O)NC(=O)[C@H](Cc2cccnc2)N(C)C(=O)[C@@H](Cc2cccc(C(N)=O)c2)NC(=O)CSC[C@@H](C(=O)N[C@H](CCC(=O)O)C(N)=O)NC(=O)[C@H](CCCC(N)=O)NC1=O.[Lu+3] [PDC_EphA2-00027106] ({CH2CO}-[dPhe(3-CONH2)][NMe3Pal]N[Gly(cBu)]K(DOTA)[NMeE][Trp(1-Me,7-Cl)]K([CO-Piperazinyl(4-CH2COOH)])[Trp(1-Me)]T[Aad](NH2)C[dE]-NH2; thioether N-12)	< 1
C[C@H]1NC(=O)CSC[C@@H](C(=O)N[C@H](CCC(=O)O)C(N)=O)NC(=O)[C@H](CCCC(N)=O)NC(=O)[C@H]([C@@H](C)O)NC(=O)[C@H](Cc2cn(C)c3ccccc23)NC(=O)[C@H](CCCCNC(=O)N2CCN(CC(=O)O)CC2)NC(=O)[C@H](Cc2cn(C)c3c(Cl)cccc23)NC(=O)[C@H](CCC(=O)O)N(C)C(=O)[C@H](CCCCNC(=O)[C@@H](CCC(=O)O)NC(=O)CN2CCN(CC(=O)O)CCN(CC(=O)O)CCN(CC(=O)O)CC2)NC(=O)[C@H](C2CCC2)NC(=O)[C@H](CC(N)=O)NC(=O)[C@H](Cc2cccnc2)N(C)C1=O.[Lu+3] [PDC_EphA2-00027126] ({CH2CO}-[dA][NMe3Pal]N[Gly(cBu)]K([dE-DOTA])[NMeE][Trp(1-Me,7-Cl)]K([CO-Piperazinyl(4-CH2COOH)])[Trp(1-Me)]T[Aad](NH2)C[dE]-NH2; thioether N-12)	< 1
C[C@H]1NC(=O)CSC[C@@H](C(N)=O)NC(=O)[C@H](CCCCNC(=O)[C@@H](Cc2ccccc2)NC(=O)CN2CCN(CC(=O)O)CCN(CC(=O)O)CCN(CC(=O)O)CC2)NC(=O)[C@H]([C@@H](C)O)NC(=O)[C@H](Cc2cn(C)c3ccccc23)NC(=O)[C@H](CCCCNC(=O)N2CCN(CC(=O)O)CC2)NC(=O)[C@H](Cc2cn(C)c3c(Cl)cccc23)NC(=O)[C@H](CCC(=O)O)N(C)C(=O)[C@H](CCCC(N)=O)NC(=O)[C@H](C2CCC2)NC(=O)[C@H](CC(N)=O)NC(=O)[C@H](Cc2cccnc2)N(C)C1=O.[Lu+3] [PDC_EphA2-00027129] ({CH2CO}-[dA][NMe3Pal]N[Gly(cBu)][Aad](NH2)[NMeE][Trp(1-Me,7-Cl)]K([CO-Piperazinyl(4-CH2COOH)])[Trp(1-Me)]TK([dF-DOTA])C-NH2; thioether N-12)	< 1
